{"source": "patent US20260344673A1", "about": "“A SOLID FORM FOR PREPARATION OF AN AQUEOUS DISPERSION, AQUEOUS DISPERSION, STABLE CONCENTRATE, COMBINED AQUEOUS DISPERSION, AND USES THEREOF” (priority 2022, published 2026)", "key": {"Venturia inaegualis": {"system": "Venturia inaegualis", "test": "Kirby-Bauer disk diffusion test, Venturia inaequalis", "description": "(§1) The microbiological tests were carried out by applying Kirby-Bauer Disk Diffusion Susceptibility Test Protocol for antimicrobial activity. It is based on the formation of a concentration gradient in the growth medium during the diffusion of the active substance from the antibiogram disc (Kirby-Bauer method).\n(§2) The performance of the embodiments of the present inventions and their mixtures enriched with millbase (MFA) was analysed against the appropriate reference substance, i.e., a commercial product containing the analogue active substance with the same concentration. The prepared solutions were applied on the paper antibiograms. Then the soaked antibiograms were placed on the Petri Dishes (dish diameter 90 mm) with the growth medium for fungal pathogens V8. Composition of V8: agar, calcium carbonate and multi-vegetable juice. 3 fragments of mycelium of the tested pathogen (5×5 mm) were transplanted onto the prepared medium. As a result, the zones where the fungal growth was inhibited have been measured and compared respectively with the control sample and the analogue active substance sample.\n(§3) Assessment was carried out by determining the infested area of the Petri dish in %. These percentages have been converted into efficacy (W) according to Abbot's formula as follows: W=(1−α/β)×100 • where: • α—corresponds to the mycelium/bacterial growth of each tested sample [%], • β—corresponds to the mycelium/bacterial growth in control sample [%].\n(§4) In order to estimate if the combined action effect with the commercial fungicide, the W parameter of the mixture was compared with W parameter for particular commercial fungicide solo. Where W=0 the efficacy of the control sample (whole Petri dish covered with mycelium), and W=100 is when no mycelium growth observed."}, "[1]": {"system": "Colletotrichum gloeosporioides", "test": "Kirby-Bauer disk diffusion test, Colletotrichum gloeosporioides", "conditions": "for EFFICACY W (Abbot): control W=0, no growth W=100", "description": "as §1, §2, §3, §4"}, "Fusarium oxysporum": {"system": "Fusarium oxysporum", "test": "Kirby-Bauer disk diffusion test, Fusarium oxysporum", "conditions": "thiabendazole 500 g/L", "description": "as §1, §2, §3, §4"}, "Phytophthora megasperma": {"system": "Phytophthora megasperma", "test": "Kirby-Bauer disk diffusion test, Phytophthora megasperma", "description": "as §1, §2, §3, §4"}, "Sclerotinia sclerotiorum": {"system": "Sclerotinia sclerotiorum", "test": "Kirby-Bauer disk diffusion test, Sclerotinia sclerotiorum", "description": "as §2, §3, §4"}, "Rhizoctonia solani": {"system": "Rhizoctonia solani", "test": "Kirby-Bauer disk diffusion test, Rhizoctonia solani", "description": "as §2, §3, §4"}, "Monilinia fructigena": {"system": "Monilinia fructigena", "test": "Kirby-Bauer disk diffusion test, Monilinia fructigena", "conditions": "for % mycelium growth relative to the control / mycelium growth: V8 medium; for mycelium growth: control 5.4 cm; for EFFICACY W (Abbot): control W=0, no growth W=100", "description": "as §2, §3, §4"}, "Phytophthora cactorum": {"system": "Phytophthora cactorum", "test": "Kirby-Bauer disk diffusion test, Phytophthora cactorum", "parameters": "% mycelium growth relative to the control: concentration or dose not given beside the values", "conditions": "for % mycelium growth relative to the control / mycelium growth: V8 medium; for mycelium growth: control 5.4 cm; for EFFICACY W (Abbot): control W=0, no growth W=100", "description": "as §2, §3, §4"}, "Fusarium equiseti": {"system": "Fusarium equiseti", "test": "Kirby-Bauer disk diffusion test, Fusarium equiseti", "description": "as §2, §3, §4"}, "[2]": {"system": "Alternaria infectoria/alternata", "test": "Kirby-Bauer disk diffusion test, Alternaria infectoria/alternata", "description": "as §2, §3, §4"}, "Botrytis cinerea": {"system": "Botrytis cinerea", "test": "Kirby-Bauer disk diffusion test, Botrytis cinerea", "conditions": "for % mycelium growth relative to the control / mycelium growth: V8 medium; for mycelium growth: control 8.6 cm; for EFFICACY W (Abbot): control W=0, no growth W=100", "description": "as §2, §3, §4"}, "Phytium ultimum": {"system": "Phytium ultimum", "test": "Kirby-Bauer disk diffusion test, Phytium ultimum", "description": "as §2, §3, §4"}, "[3]": {"conditions": "Colletotrichum gloeosporioides, V8 medium"}, "[4]": {"conditions": "Colletotrichum gloeosporioides, V8 medium, control 5.4 cm"}}}
{"smiles": "CCCCCCCCCCCCNC(=N)N", "note": "[Dodine, dodine, reference compound]", "values": [{"measurement": "activity at 680000 µg/mL", "setting": "Venturia inaegualis; Venturia, dodine 680 g/L, read-out: % mycelium growth relative to the control", "result": 55, "unit": "%"}, {"measurement": "inhibition of growth at 680000 µg/mL (stock)", "setting": "Venturia inaegualis; Venturia, dodine 680 g/L, read-out: EFFICACY W (Abbot)", "result": 45, "unit": "%"}, {"measurement": "mycelium growth", "setting": "Venturia inaegualis; dodine 680 g/L", "result": 1.6, "unit": "cm"}]}
{"smiles": "c1ccc2[nH]c(-c3cscn3)nc2c1", "note": "[Thiabendazole, thiabendazole, reference compound]", "values": [{"measurement": "activity at 500000 µg/mL", "setting": "[1]; Colletotrichum gloeosporioides, thiabendazole 500 g/L, read-out: % mycelium growth relative to the control", "result": 0, "unit": "%"}, {"measurement": "inhibition of growth at 500000 µg/mL", "setting": "[1]; Colletotrichum gloeosporioides, thiabendazole 500 g/L, read-out: EFFICACY W (Abbot)", "result": 100, "unit": "%"}, {"measurement": "mycelium growth", "setting": "[1]; thiabendazole 500 g/L", "result": 0, "unit": "cm"}, {"measurement": "activity at 500000 µg/mL", "setting": "Fusarium oxysporum; Fusarium oxysporum, read-out: % mycelium growth relative to the control", "result": 84, "unit": "%"}, {"measurement": "inhibition of growth at 500000 µg/mL", "setting": "Fusarium oxysporum; Fusarium oxysporum, read-out: EFFICACY W (Abbot)", "result": 16, "unit": "%"}, {"measurement": "mycelium growth", "setting": "Fusarium oxysporum", "result": 7.2, "unit": "cm"}, {"measurement": "activity at 500000 µg/mL", "setting": "Phytophthora megasperma; Phytophthora megasperma, thiabendazole 500 g/L, read-out: % mycelium growth relative to the control", "result": 48, "unit": "%"}, {"measurement": "inhibition of growth at 500000 µg/mL", "setting": "Phytophthora megasperma; Phytophthora megasperma, thiabendazole 500 g/L, read-out: EFFICACY W (Abbot)", "result": 52, "unit": "%"}, {"measurement": "mycelium growth", "setting": "Phytophthora megasperma; thiabendazole 500 g/L", "result": 2.6, "unit": "cm"}]}
{"smiles": "O=[N+]([O-])c1cc(C(F)(F)F)c(Cl)c([N+](=O)[O-])c1Nc1ncc(C(F)(F)F)cc1Cl", "note": "[fluazinam (200)]", "values": [{"measurement": "% mycelium growth relative to the control", "setting": "Sclerotinia sclerotiorum; V8 medium", "result": 100, "unit": "%"}, {"measurement": "mycelium growth", "setting": "Sclerotinia sclerotiorum; V8 medium, control 8.6 cm", "result": 8.6, "unit": "cm"}, {"measurement": "EFFICACY W (Abbot)", "setting": "Sclerotinia sclerotiorum; control W=0, no growth W=100", "result": 0}, {"measurement": "% mycelium growth relative to the control", "setting": "[1]; [3]", "result": 0, "unit": "%"}, {"measurement": "mycelium growth", "setting": "[1]; [4]", "result": 0, "unit": "cm"}, {"measurement": "EFFICACY W (Abbot)", "setting": "[1]; Colletotrichum gloeosporioides", "result": 100}, {"measurement": "% mycelium growth relative to the control", "setting": "Rhizoctonia solani; V8 medium", "result": 100, "unit": "%"}, {"measurement": "mycelium growth", "setting": "Rhizoctonia solani; V8 medium, control 8.6 cm", "result": 8.6, "unit": "cm"}, {"measurement": "EFFICACY W (Abbot)", "setting": "Rhizoctonia solani; control W=0, no growth W=100", "result": 0}, {"measurement": "% mycelium growth relative to the control", "setting": "Monilinia fructigena", "result": 0, "unit": "%"}, {"measurement": "mycelium growth", "setting": "Monilinia fructigena", "result": 0, "unit": "cm"}, {"measurement": "EFFICACY W (Abbot)", "setting": "Monilinia fructigena", "result": 100}, {"measurement": "% mycelium growth relative to the control", "setting": "Phytophthora cactorum", "result": 33, "unit": "%"}, {"measurement": "mycelium growth", "setting": "Phytophthora cactorum", "result": 1.8, "unit": "cm"}, {"measurement": "EFFICACY W (Abbot)", "setting": "Phytophthora cactorum", "result": 67}, {"measurement": "% mycelium growth relative to the control", "setting": "Fusarium equiseti; V8 medium", "result": 80, "unit": "%"}, {"measurement": "mycelium growth", "setting": "Fusarium equiseti; V8 medium, control 8.6 cm", "result": 6.9, "unit": "cm"}, {"measurement": "EFFICACY W (Abbot)", "setting": "Fusarium equiseti; control W=0, no growth W=100", "result": 20}, {"measurement": "% mycelium growth relative to the control", "setting": "[2]; V8 medium", "result": 40, "unit": "%"}, {"measurement": "mycelium growth", "setting": "[2]; V8 medium, control 8.6 cm", "result": 3.4, "unit": "cm"}, {"measurement": "EFFICACY W (Abbot)", "setting": "[2]; control W=0, no growth W=100", "result": 60}, {"measurement": "% mycelium growth relative to the control", "setting": "Botrytis cinerea", "result": 100, "unit": "%"}, {"measurement": "mycelium growth", "setting": "Botrytis cinerea", "result": 8.6, "unit": "cm"}, {"measurement": "EFFICACY W (Abbot)", "setting": "Botrytis cinerea", "result": 0}]}
{"smiles": "O=C1C2CC=CCC2C(=O)N1SC(Cl)(Cl)Cl", "note": "(stereo not drawn) [Captan (1500)]", "values": [{"measurement": "% mycelium growth relative to the control", "setting": "[1]; [3]", "result": 11, "unit": "%"}, {"measurement": "mycelium growth", "setting": "[1]; [4]", "result": 0.6, "unit": "cm"}, {"measurement": "EFFICACY W (Abbot)", "setting": "[1]; Colletotrichum gloeosporioides", "result": 89}, {"measurement": "% mycelium growth relative to the control", "setting": "Venturia inaegualis; Venturia inaegualis, V8 medium", "result": 38, "unit": "%"}, {"measurement": "mycelium growth", "setting": "Venturia inaegualis; Venturia inaegualis, V8 medium, control 2.9 cm", "result": 1.1, "unit": "cm"}, {"measurement": "EFFICACY W (Abbot)", "setting": "Venturia inaegualis; Venturia inaegualis, control W=0, no growth W=100", "result": 62}, {"measurement": "% mycelium growth relative to the control", "setting": "Monilinia fructigena", "result": 33, "unit": "%"}, {"measurement": "mycelium growth", "setting": "Monilinia fructigena", "result": 1.8, "unit": "cm"}, {"measurement": "EFFICACY W (Abbot)", "setting": "Monilinia fructigena", "result": 67}, {"measurement": "% mycelium growth relative to the control", "setting": "Botrytis cinerea", "result": 70, "unit": "%"}, {"measurement": "mycelium growth", "setting": "Botrytis cinerea", "result": 6, "unit": "cm"}, {"measurement": "EFFICACY W (Abbot)", "setting": "Botrytis cinerea", "result": 30}]}
{"smiles": "Cc1ccc(-c2c(Cl)nc(C#N)n2S(=O)(=O)N(C)C)cc1", "note": "[Cyazofamid (80)]", "values": [{"measurement": "% mycelium growth relative to the control", "setting": "Phytium ultimum; V8 medium", "result": 66, "unit": "%"}, {"measurement": "mycelium growth", "setting": "Phytium ultimum; V8 medium, control 8.6 cm", "result": 5.7, "unit": "cm"}, {"measurement": "EFFICACY W (Abbot)", "setting": "Phytium ultimum; control W=0, no growth W=100", "result": 76}, {"measurement": "% mycelium growth relative to the control", "setting": "Phytophthora cactorum", "result": 63, "unit": "%"}, {"measurement": "mycelium growth", "setting": "Phytophthora cactorum", "result": 3.4, "unit": "cm"}, {"measurement": "EFFICACY W (Abbot)", "setting": "Phytophthora cactorum", "result": 37}, {"measurement": "% mycelium growth relative to the control", "setting": "Phytophthora megasperma; Phytophthora megasperma, V8 medium", "result": 100, "unit": "%"}, {"measurement": "mycelium growth", "setting": "Phytophthora megasperma; Phytophthora megasperma, V8 medium, control 5.4 cm (8.6 cm in Table 25)", "result": 5.4, "unit": "cm"}, {"measurement": "EFFICACY W (Abbot)", "setting": "Phytophthora megasperma; Phytophthora megasperma, control W=0, no growth W=100", "result": 0}]}
